Series [1] has as its system HIV-1 (IIIB). Description: microbe, parasite or virus in culture. The following applies: Human immunodeficiency virus 1, IIIB, CCRF-CEM.
The subject of series [2] is HIV-1 (IIIB).
Series [3] deals with HIV-1 (IIIB). As to the kind of experiment: microbe, parasite or virus in culture. How it is done:
(§1) MT-4, C8166 or CEM cells (4 to 5×10^5 cells per ml) were suspended in fresh culture medium (RPMI-1640 medium supplemented with 10% fetal bovine serum (FBS) (BioWittaker Europe, Verviers, Belgium), 2 mM L-glutamine and […] NaHCO3). Subsequently, the cells were infected with HIV-1 (IIIB) or HIV-2(ROD) at ˜100 CCID50 (1 CCID50 being the dose infective for 50% of the cell cultures) per ml of cell suspension. Then, 100 μl of the infected cell suspension were transferred to 96-well microplate wells, mixed with 100 μl of the appropriate (5-fold) dilutions of the test compounds and further incubated at 37° C. After 4 to 5 days, giant cell formation was recorded microscopically in the CEM and C8166 cell cultures. The MT-4 cell cultures were treated with trypan blue and the number of viable cells was determined.

The subject of a further series is HIV-2(ROD). As to the kind of experiment: microbe, parasite or virus in culture. How it is done:
as §1

The subject of series [4] is HIV (SF2 virus). As to the kind of experiment: HIV infectivity assay, SF2-infected H9 cells, visible syncytia. The following applies: for Visible syncytia: H9/SF2, day 11. Format: cell-based.
Series [5] has as its system HIV (SF2 virus). As to the kind of experiment: HIV infectivity assay, SF2-infected H9 cells, reverse transcriptase (RT) quantification in supernatant. Format: cell-based. The following applies: for inhibition of HIV replication, reverse transcriptase (RT) activity: cultures containing boiled fetal calf serum.
The test system of series [6] is HIV (SF2 virus). Description: HIV infectivity assay, SF2-infected H9 cells, p24 quantification. The following applies: for OD1: replicates (1)-(3). It counts as cell-based. On the procedure: The remaining wells were filled with sterile distilled water. The cell culture plates were incubated at 37° C. and 5% CO2. After four days the medium was changed, after eight days the medium was changed and the cells were collected. After 11 days, the infection was stopped, the cells were viewed in a 10× magnification microscope and 650 μl of each cell supernatant was collected and frozen at −80° C. for further analysis. After five more days, the supernatants were thawed and used in a conventional reverse transcriptase (RT) activity assay (e.g., Roche AMPLICOR MONITOR™) or a p24 quantification assay (e.g., Abbott Laboratories, Chicago). (See U.S. Pat. No. 6,258,932 and U.S. patent application Ser. No. 10/235,158, both of which are hereby expressly incorporated by reference in its entireties).
[…] The cells in the samples were counted and then centrifuged. The cells were then resuspended in 10 ml of RPMI 1640 (containing fetal calf serum) and either […] Metabolite X or 100 μM GPG-NH2. Uninfected control and untreated control samples were also included in the experiment. The samples were then incubated overnight at 37° C. at 5% CO2.
Then, the amount of p24 in the samples was analysed using a conventional p24 detection assay (see U.S. Pat. No. 6,258,932).
Three replicate samples (“replicates”) of uninfected samples and untreated samples were also included in the experiment as controls. The inhibition of HIV replication was monitored by quantifying the levels of p24 using a conventional detection kit.
Three replicates of unninfected samples and untreated samples were also included in the experiment as controls.

Where [7] appears, read: read-out: EC50 against HIV-1(IIIB), CEM cell cultures, Table 2.
Where [8] appears, read: read-out: EC50 (CEM) HIV-1 (IIIB), Table 19.

From patent US20080076824A1, “Compounds That Inhibit Replication Of Human Immunodeficiency Virus” (priority 2004, published 2008) come the findings set out here.

“And” between values parts separate entries of the source, which are not always exact repeats. Equal entries are not always repeated. “Also recorded” adds a separate entry of the source. Where two headings read alike, the source gives them in different places.

Take `CC(C)[C@H](N)C(N)=O` [L-Valinamide]: the EC50 in the series on HIV-1 (IIIB) [1] (setting [7]) was greater than 500 µM.
Consider `NC(=O)C[C@H](N)C(N)=O` [L-Asparaginamide, reference compound], for which the EC50 with HIV-1 (IIIB) [1] (setting [7]) is greater than 500 µM; in the series with HIV-1 (IIIB) [2] (setting [7]), greater than 1000 µM.
`NC(=O)C(N)Cc1ccccc1` (racemic) [DL-Phenylalaninamide]: the EC50 with HIV-1 (IIIB) [1] (setting [7]) is greater than 1000 µM.
Regarding `NC(=O)C(N)=O` [Oxamide, Oxamide (H2NCOCONH2), reference compound], the EC50 with HIV-1 (IIIB) [1] (setting [8]) is greater than 500 µM; in the series with HIV-1 (IIIB) [3] (Human immunodeficiency virus 1, IIIB, MT4, read-out: EC50 (MT-4) HIV-1 (IIIB)), greater than 500 µM; in the series on HIV-2(ROD) (Human immunodeficiency virus 2, MT4, read-out: EC50 (MT-4) HIV-2 (ROD), Table 19) it was greater than 500 µM.
`NCCN` [Ethylene diamine]: the EC50 in the series on HIV-1 (IIIB) [1] (setting [7]) was greater than 1000 µM.
Regarding `CSCC[C@H](N)C(N)=O` [L-Methioninamide], in the series on HIV-1 (IIIB) [1] (setting [7]), the EC50 was greater than 500 µM.
The same measure, in the same setting: next, `NCC(=O)CN` [1,3-diaminoaceton]: greater than 1000 µM; `NC(=O)C[C@@H](N)C(=O)O` [D-Asparagine]: greater than 500 µM; `C[C@H](N)C(=O)O` [L-Alanine]: greater than 500 µM.
As for `NC(=O)C(N)O` (stereo not drawn) [Met-X, α-hydroxyglycinamide], the “inhibition of replication of HIV” value in the series with HIV-1 (IIIB) [2] (boiled fetal bovine serum or human serum samples, results the experiments will show) is listed as “efficiently inhibits replication of HIV”. Besides, the Visible syncytia result in the series on HIV (SF2 virus) [4] (100 μM in boiled RPMI++), with HIV (SF2 virus) [4] (100 μM in normal RPMI++ (10% FCS)), with HIV (SF2 virus) [4] (500 μM in boiled RPMI++) and with HIV (SF2 virus) [4] (500 μM in normal RPMI++ (10% FCS)) was “negative” in each case. Further, in the series with HIV (SF2 virus) [4] (boiled fetal calf serum), the “inhibition of replication and/or propagation of HIV by visual inspection” value is recorded as “effectively inhibited”. In addition, the “reverse transcriptase activity in treated samples” value in the series with HIV (SF2 virus) [5] (100 μM, fetal calf serum) is “no reverse transcriptase activity”. The entries for the “inhibition of HIV replication, reverse transcriptase (RT) activity” value in the series with HIV (SF2 virus) [5] and in the series on HIV (SF2 virus) [5] (listed as Metabolite X) were “inhibited the replication of HIV” and “effectively inhibited replication HIV”, respectively. Moreover, the “concentration at which inhibition of HIV replication is virtually complete” value in the series with HIV (SF2 virus) [5] (fetal bovine serum, 10 days) is no less than 15.6 µM. The OD1 in the series with HIV (SF2 virus) [6] (50 μM, fetal calf serum) was 1.105 and 1.895 and 2.351; in the series on HIV (SF2 virus) [6] (100 μM, fetal calf serum), 0.193 and 0.081 and 0.144. Moreover, the “conc p24” value with HIV (SF2 virus) [6] (50 μM, human serum) was 457.33 ng/mL and 427.85 ng/mL and 261.05 ng/mL. Further, the “inhibition of HIV replication, p24” value with HIV (SF2 virus) [6] (100 μM, presence of fetal calf serum) is “effectively inhibited HIV replication”. For the same compound, the “inhibition of HIV, accumulation of p24, compared with reference” value with HIV (SF2 virus) [6] (fetal calf serum) is on record as “as effectively as GPG-NH2; also recorded: as effectively as G-NH2”. For the same compound, the “inhibition of HIV replication, accumulation of p24” value in the series on HIV (SF2 virus) [6] (human serum) is listed as “inhibited HIV replication in human serum”; with HIV (SF2 virus) [6] (human serum, listed as Metabolite X), “effective inhibitors of HIV replication in human serum”.
In turn, `CCOC(N)C(=O)NC(=O)OCc1ccccc1` (stereo not drawn) [Example 25, α-ethoxy-N-benzyloxycarbonylglycinamide] yielded a melting point of 119 to 121 °C.
`CC(C)[C@H](N)C(=O)Nc1ccc2ccccc2c1` [L-Val β-naphthylamide, reference compound]: the half-maximal effective concentration (EC50) in the series on HIV-1 (IIIB) [2] (setting [7]) is greater than 100 µM.
On to `NC(=O)C(N)Cc1c[nH]c2ccccc12` (racemic) [DL-Tryptophanamide], for which, in the series with HIV-1 (IIIB) [1] (setting [7]), the EC50 is greater than 500 µM.
Still for that read-out and setting: under `NC(=O)[C@@H](N)Cc1ccc(O)cc1` [L-Tyrosinamide] stands greater than 500 µM.
Turning to `NCCCC[C@H](N)C(N)=O` [L-Lysinamide], the EC50 in the series on HIV-1 (IIIB) [1] (read-out: EC50 against HIV-1(IIIB)) is greater than 500 µM.
The compound `CC(C)(C)OC(=O)NC(=O)C(N)OCc1ccccc1` (stereo not drawn) [Example 20, α-benzyloxy-N-tert-butoxycarbonylglycinamide] came in with a melting point of 115 to 120 °C.
As to `C[C@H](N)C(N)=O` [L-Alaninamide], in the series on HIV-1 (IIIB) [1] (setting [7]), the EC50 was greater than 500 µM.
Same read-out and setting: next, `N=C(N)NCCC[C@H](N)C(N)=O` [L-Argininamide]: greater than 500 µM; `CC(C)C[C@H](N)C(=O)O` [L-Leucine]: greater than 500 µM.
Take `CC(C)OC(N)C(=O)NC(=O)OCc1ccccc1` (stereo not drawn) [Example 26, α-isopropoxy-N-benzyloxycarbonylglycinamide]: the melting point is 111 to 113 °C.
Turning to `NC(=O)CO` [Glycolamide, Glycolamide (HO—CH2—CO—NH2), reference compound], the EC50 with HIV-1 (IIIB) [3] (read-out: EC50 (MT-4) HIV-1 (IIIB), Table 19) was greater than 500 µM; with HIV-2(ROD) (read-out: EC50 (MT-4) HIV-2 (ROD), Table 19) it was greater than 500 µM; in the series with HIV-1 (IIIB) [2] (setting [8]), greater than 500 µM.
For the compound `CC(C)C[C@H](N)C(N)=O` [L-Leucinamide], in the series with HIV-1 (IIIB) [1] (setting [7]), the EC50 was greater than 500 µM.
On the same count and under the same terms, under `NCC(N)C(=O)O` (racemic) [DL-2,3-diaminopropionic acid] stands greater than 1000 µM; under `CNCC(N)=O` [Sarcosinamide], greater than 1000 µM; under `CC(C)C[C@@H](N)C(=O)O` [D-Leucine], greater than 1000 µM.
As to `NCC(N)=S` [Glycin-thioamide, reference compound], in the series on HIV-1 (IIIB) [2] (setting [7]), the EC50 is greater than 500 µM.
In the case of `NCC(O)CN` [1,3-diamino-2-hydroxypropane], in the series with HIV-1 (IIIB) [1] (setting [7]), the EC50 was greater than 1000 µM.
Still for that read-out and setting: under `NCC(=O)O` [Glycine] stands greater than 500 µM.
The same measure, in the same setting: under `NC(=O)[C@@H](N)Cc1c[nH]c2ccccc12` [L-Tryptophanamide] stands greater than 200 µM.
For the compound `CCOC(=O)C(NC(=O)OCc1ccccc1)OCC` (stereo not drawn) [Example 23, α-ethoxy-N-benzyloxycarbonylglycine ethyl ester], the melting point was 66 to 68 °C.
For `CC(C)CC(N)C(N)=O` (racemic) [DL-Leucinamide], the EC50 in the series on HIV-1 (IIIB) [1] (setting [7]) was greater than 500 µM.
On the same count and under the same terms, next, `CC[C@H](C)[C@H](N)C(N)=O` [L-Isoleucinamide]: greater than 500 µM.
Consider `O=C(O)[C@@H]1CCCN1` [L-Proline], for which, in the series with HIV-1 (IIIB) [1] (setting [7]), the EC50 is greater than 500 µM.
Same read-out and setting: under `NC(=O)[C@@H]1CCCN1` [L-Prolinamide] stands greater than 1000 µM; under `NC(=O)[C@@H](N)CO` [L-Serinamide], greater than 1000 µM.
As to `COC(N)C(=O)NC(=O)OCc1ccccc1` (stereo not drawn) [Example 22, α-methoxy-N-benzyloxycarbonylglycinamide], the melting point lay within 110 to 112 °C.
As to `CNC(=O)CN` [Glycine methylamide], in the series with HIV-1 (IIIB) [1] (setting [7]), the EC50 is greater than 500 µM.
Still for that read-out and setting: under `C[C@@H](O)[C@H](N)C(N)=O` [L-Threoninamide] stands greater than 500 µM; under `NC(=O)[C@@H](N)Cc1ccccc1` [L-Phenylalaninamide], greater than 500 µM.
